Laboratory results taken from ChEMBL document CHEMBL1130603, “Studies on the C-terminal of hexapeptide inhibitors of the hepatitis C virus serine protease” (Bioorg Med Chem Lett, 1998).
Square brackets hold non-standard residues; d marks the D form. Peptide text beside a SMILES is read from it. * marks the point of attachment. Nle = CCCC[C@H](N)C(=O)O; Nva = CCC[C@H](N)C(=O)O; Abu = CC[C@H](N)C(=O)O; CF3 = FC(F)(F)*

Assays:
Cathepsin B = Cathepsin B (Homo sapiens, UniProt P07858); assay: Compound was tested for inhibition of human liver Cathepsin B
Neutrophil elastase = target: T1, Neutrophil elastase (Homo sapiens, UniProt P08246); assay: Compound was tested for inhibition of human leucocyte elastase (HLE)
T1 sequence (P08246 whole entry): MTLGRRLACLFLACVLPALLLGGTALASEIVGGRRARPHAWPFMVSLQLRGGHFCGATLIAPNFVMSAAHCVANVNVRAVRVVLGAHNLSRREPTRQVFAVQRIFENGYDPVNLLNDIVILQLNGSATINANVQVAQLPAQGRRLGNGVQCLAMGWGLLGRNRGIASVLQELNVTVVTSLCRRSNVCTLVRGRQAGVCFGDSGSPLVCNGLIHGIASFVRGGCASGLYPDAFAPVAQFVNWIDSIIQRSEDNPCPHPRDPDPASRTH

[1] = target: T2, Hepatitis C virus serine protease, NS3/NS4A (Hepatitis C virus, UniProt D2K2A8+A3EZI9); assay: (§1) Inhibition of hepatitis C virus (HCV) NS3 protease.; type: protein-complex assay, Hepacivirus hominis
Pancreatic elastase = Pancreatic elastase (Sus scrofa, UniProt P08419+P00772); assay: Compound was tested for inhibition of porcine pancreatic elastase (PPE); type: protein assay
[2] = Compound was tested for inhibition of bovine pancreatic alpha-chymotrypsin; design: species or system Bos taurus
[3] = target: Hepatitis C virus serine protease, NS3/NS4A (Hepatitis C virus, UniProt A3EZI9+D2K2A8); assay: as §1; type: protein-complex assay, Hepacivirus hominis
[4] = target: T2, Hepatitis C virus serine protease, NS3/NS4A; assay: Compound was tested for competitive inhibition of hepatitis C virus (HCV) serine protease; type: protein-complex assay, Hepacivirus hominis

Molecule	IC50 (Cathepsin B) [µM]	IC50 (Neutrophil elastase) [µM]	IC50 (Pancreatic elastase) [µM]	IC50 [2] [µM]	IC50 [3] [µM]	other results
CCC[C@@H](NC(=O)[C@@H]1CCCN1C(=O)[C@@H](NC(=O)[C@@H](NC(=O)[C@@H](CC(=O)O)NC(=O)[C@H](CC(=O)O)NC(C)=O)[C@@H](C)CC)C(C)C)C(=O)NC	–	–	–	–	–	IC50 [1]: 160 µM
CCC[C@@H](NC(=O)[C@@H]1CCCN1C(=O)[C@@H](NC(=O)[C@@H](NC(=O)[C@@H](CC(=O)O)NC(=O)[C@H](CC(=O)O)NC(C)=O)[C@@H](C)CC)C(C)C)C(N)=O	–	–	–	–	–	IC50 [1]: > 1000 µM
CCC[C@@H](NC(=O)[C@@H]1CCCN1C(=O)[C@@H](NC(=O)[C@@H](NC(=O)[C@@H](CC(=O)O)NC(=O)[C@H](CC(=O)O)NC(C)=O)[C@@H](C)CC)C(C)C)C(=O)OC	–	–	–	–	–	IC50 [1]: 17 µM
CCC[C@H](CO)NC(=O)[C@@H]1CCCN1C(=O)[C@@H](NC(=O)[C@@H](NC(=O)[C@@H](CC(=O)O)NC(=O)[C@H](CC(=O)O)NC(C)=O)[C@@H](C)CC)C(C)C	–	–	–	–	280	–
CC[C@H](C)[C@H](NC(=O)[C@@H]1CCCN1C(=O)[C@@H](NC(=O)[C@@H](NC(=O)[C@H](CC(=O)O)NC(=O)[C@H](CC(=O)O)NC(C)=O)[C@@H](C)CC)C(C)C)C(=O)O	–	–	–	–	780	–
CC[C@@H](C)[C@H](NC(=O)[C@@H]1CCCN1C(=O)[C@@H](NC(=O)[C@@H](NC(=O)[C@H](CC(=O)O)NC(=O)[C@H](CC(=O)O)NC(C)=O)[C@@H](C)CC)C(C)C)C(=O)O	–	–	–	–	190	–
CCC[C@@H](NC(=O)[C@@H]1CCCN1C(=O)[C@@H](NC(=O)[C@@H](NC(=O)[C@@H](CC(=O)O)NC(=O)[C@H](CC(=O)O)NC(C)=O)[C@@H](C)CC)C(C)C)C(=O)NCc1ccccc1	> 1000	120	206	> 1000	–	IC50 [1]: 52 µM
CCC[C@H](NC(=O)[C@@H]1CCCN1C(=O)[C@@H](NC(=O)[C@@H](NC(=O)[C@H](CC(=O)O)NC(=O)[C@H](CC(=O)O)NC(C)=O)[C@@H](C)CC)C(C)C)C(=O)C(F)(F)C(F)(F)F	–	–	–	–	79	–
CC[C@H](C)[C@H](NC(=O)[C@H](CC(=O)O)NC(=O)[C@H](CC(=O)O)NC(C)=O)C(=O)N[C@H](C(=O)N1CCC[C@H]1C(=O)N[C@@H](CS)C(=O)O)C(C)C	–	–	–	–	28	–
CC[C@H](C)[C@H](NC(=O)[C@@H](CC(=O)O)NC(=O)[C@H](CC(=O)O)NC(C)=O)C(=O)N[C@H](C(=O)N1CCC[C@@H]1C(=O)N[C@@H](CS)C(=O)O)C(C)C	–	–	–	–	–	Ki [4]: 0.6 µM
CC[C@H](NC(=O)[C@@H]1CCCN1C(=O)[C@@H](NC(=O)[C@@H](NC(=O)[C@H](CC(=O)O)NC(=O)[C@H](CC(=O)O)NC(C)=O)[C@@H](C)CC)C(C)C)C(=O)O (Ac-DDIVP[Abu]-OH)	–	–	–	–	250	–
CCCC[C@H](NC(=O)[C@@H]1CCCN1C(=O)[C@@H](NC(=O)[C@@H](NC(=O)[C@H](CC(=O)O)NC(=O)[C@H](CC(=O)O)NC(C)=O)[C@@H](C)CC)C(C)C)C(=O)O (Ac-DDIVP[Nle]-OH)	–	–	–	–	500	–
CCC[C@H](NC(=O)[C@@H]1CCCN1C(=O)[C@@H](NC(=O)[C@@H](NC(=O)[C@H](CC(=O)O)NC(=O)[C@H](CC(=O)O)NC(C)=O)[C@@H](C)CC)C(C)C)C(=O)C(F)(F)F (Ac-DDIVP[Nva]-CF3)	–	–	–	–	160	–
CCC[C@H](NC(=O)[C@@H]1CCCN1C(=O)[C@@H](NC(=O)[C@@H](NC(=O)[C@@H](CC(=O)O)NC(=O)[C@H](CC(=O)O)NC(C)=O)[C@@H](C)CC)C(C)C)C(=O)C(F)(F)F (Ac-D[dD]IVP[Nva]-CF3)	> 900	< 0.06	0.19	4.5	22	–
CCC[C@H](NC(=O)[C@@H]1CCCN1C(=O)[C@@H](NC(=O)[C@@H](NC(=O)[C@@H](CC(=O)O)NC(=O)[C@H](CC(=O)O)NC(C)=O)[C@@H](C)CC)C(C)C)C(=O)O (Ac-D[dD]IVP[Nva]-OH)	> 1000	> 1000	> 1000	> 1000	17	–
Ac-DDIVPL-OH	–	–	–	–	800	–

Second part, led by results:

IC50 (Cathepsin B) [µM]	IC50 (Neutrophil elastase) [µM]	IC50 (Pancreatic elastase) [µM]	IC50 [2] [µM]	IC50 [3] [µM]	Molecule	other results
> 1000	> 1000	> 1000	29	–	CCC[C@@H](NC(=O)[C@@H]1CCCN1C(=O)[C@@H](NC(=O)[C@@H](NC(=O)[C@@H](CC(=O)O)NC(=O)[C@H](CC(=O)O)NC(C)=O)[C@@H](C)CC)C(C)C)C(=O)OCc1ccccc1	IC50 [1]: 9.3 µM
100	0.03	< 0.06	10	2	CCC[C@H](NC(=O)[C@@H]1CCCN1C(=O)[C@@H](NC(=O)[C@@H](NC(=O)[C@H](CC(=O)O)NC(=O)[C@H](CC(=O)O)NC(C)=O)[C@@H](C)CC)C(C)C)C(=O)C(=O)NCc1ccccc1	–
172	0.1	< 0.06	30	0.64	CCC[C@H](NC(=O)[C@@H]1CCCN1C(=O)[C@@H](NC(=O)[C@@H](NC(=O)[C@@H](CC(=O)O)NC(=O)[C@H](CC(=O)O)NC(C)=O)[C@@H](C)CC)C(C)C)C(=O)C(=O)NCc1ccccc1	–
416	0.06	< 0.06	18	12	CCC[C@H](NC(=O)[C@@H]1CCCN1C(=O)[C@@H](NC(=O)[C@@H](NC(=O)[C@@H](CC(=O)O)NC(=O)[C@H](CC(=O)O)NC(C)=O)[C@@H](C)CC)C(C)C)C(=O)C(F)(F)C(F)(F)F	–
9.5	6.7	2.2	> 900	1.1	CCC[C@@H](C=O)NC(=O)[C@@H]1CCCN1C(=O)[C@@H](NC(=O)[C@@H](NC(=O)[C@@H](CC(=O)O)NC(=O)[C@H](CC(=O)O)NC(C)=O)[C@@H](C)CC)C(C)C	–
–	–	–	–	10	CCC[C@@H](C=O)NC(=O)[C@@H]1CCCN1C(=O)[C@@H](NC(=O)[C@@H](NC(=O)[C@H](CC(=O)O)NC(=O)[C@H](CC(=O)O)NC(C)=O)[C@@H](C)CC)C(C)C	–
–	–	–	–	150	CCC[C@H](NC(=O)[C@@H]1CCCN1C(=O)[C@@H](NC(=O)[C@@H](NC(=O)[C@H](CC(=O)O)NC(=O)[C@H](CC(=O)O)NC(C)=O)[C@@H](C)CC)C(C)C)C(=O)O (Ac-DDIVP[Nva]-OH)	–
–	–	–	–	750	Ac-DDIVPA-OH	–
